Data set [1] addresses Hsp90 Nuclear Binding Domain (NBD) (Aspergillus fumigatus, UniProt P40292). The data set is described as follows: Surface Plasmon Resonance (SPR) binding, A. fumigatus Hsp90 NBD. As to conditions: biotinylated Hsp90 NBD on streptavidin chip, 25° C., 1:1 binding model; NB undefined. The procedure, abridged:
(§1)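 Biacore S200 at 25° C; AviTag-biotinylated recombinant Hsp90 NBD captured on streptavidin chip at 2000-2500 RU. Compound dilution series run in HBS-P pH 7.4 with 2% DMSO at 40 μL/min, 60 s association and 600 s dissociation. Sensorgrams fitted to a 1:1 binding model.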

Data set [2] concerns the target Hsp90 Nuclear Binding Domain (NBD) (Candida albicans (strain SC5314 / ATCC MYA-2876) (Yeast), UniProt P46598). The data set is described as follows: Surface Plasmon Resonance (SPR) binding, C. albicans Hsp90 NBD. The following applies: biotinylated Hsp90 NBD on streptavidin chip, 25° C., 1:1 binding model. The procedure, abridged: as §1
In another data set the test system is HepG2 cells. As to the kind of experiment: Mammalian cell toxicity (Cell Titer-Glo). The class given is cell-based. How it is done:
Mammalian Cell Toxicity. HepG2 cells were seeded overnight at 500 cells/well in 384-well plate, then incubated with compounds (10-point concentration titration) for 48 h. Cell Titer-Glo® reagent ([…]) was added to each well and after 10-minute incubation at room temperature the luminescent signal was measured using an Envision plate reader (Perkin Elmer).
For orientation: ATP-based viability assays read luminescence as a measure of living cells.

The subject of the next data set is CaCl2. As to the kind of experiment: Antifungal sensitivity testing (broth microdilution MIC). The class given is cell-based. As to conditions: 96-well broth microdilution. The gist of the method: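 Broth microdilution MIC per a modified published protocol; compounds dissolved in DMSO, fluconazole in water; duplicates in at least two independent experiments. Fungicidal activity checked by spotting MIC-plate cultures onto YPD agar, read after 24 h at 30° C.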
(In general: In broth dilution the organism is exposed to a series of concentrations in liquid medium.)

In general, Kd refers to a measure of binding affinity in units of concentration. Low values mean a tighter complex, high ones a looser complex. Usually MIC50 stands for the lowest concentration that inhibits either 50% of growth or 50% of the strains tested, depending on the study.

≈ marks a conversion by molar mass, not a printed value. Some results are limits rather than exact numbers.

Hsp90 Nuclear Binding Domain (NBD) (Aspergillus fumigatus, UniProt P40292), sequence (P40292 whole entry, looked up, the tested form may be a part): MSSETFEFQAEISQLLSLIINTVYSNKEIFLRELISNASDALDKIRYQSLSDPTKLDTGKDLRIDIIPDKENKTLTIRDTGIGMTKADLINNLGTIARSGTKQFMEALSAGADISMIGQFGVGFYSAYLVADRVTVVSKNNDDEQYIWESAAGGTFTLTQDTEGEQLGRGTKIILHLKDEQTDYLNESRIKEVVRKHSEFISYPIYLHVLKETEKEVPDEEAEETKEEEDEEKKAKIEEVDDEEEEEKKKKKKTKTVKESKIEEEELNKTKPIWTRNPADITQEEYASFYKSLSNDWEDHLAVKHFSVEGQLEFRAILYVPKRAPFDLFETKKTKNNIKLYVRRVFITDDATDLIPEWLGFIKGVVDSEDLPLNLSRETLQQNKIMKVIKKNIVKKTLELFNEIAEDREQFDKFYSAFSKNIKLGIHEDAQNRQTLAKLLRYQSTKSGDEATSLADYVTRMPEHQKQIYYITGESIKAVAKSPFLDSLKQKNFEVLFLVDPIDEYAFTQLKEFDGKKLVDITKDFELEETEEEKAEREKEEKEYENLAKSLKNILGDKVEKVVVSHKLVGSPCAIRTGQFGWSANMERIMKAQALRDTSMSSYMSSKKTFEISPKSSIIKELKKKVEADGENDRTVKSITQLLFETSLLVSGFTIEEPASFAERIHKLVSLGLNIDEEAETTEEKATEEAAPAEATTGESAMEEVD
Hsp90 Nuclear Binding Domain (NBD) (Candida albicans (strain SC5314 / ATCC MYA-2876) (Yeast), UniProt P46598), sequence (P46598 1-218 limits assumed): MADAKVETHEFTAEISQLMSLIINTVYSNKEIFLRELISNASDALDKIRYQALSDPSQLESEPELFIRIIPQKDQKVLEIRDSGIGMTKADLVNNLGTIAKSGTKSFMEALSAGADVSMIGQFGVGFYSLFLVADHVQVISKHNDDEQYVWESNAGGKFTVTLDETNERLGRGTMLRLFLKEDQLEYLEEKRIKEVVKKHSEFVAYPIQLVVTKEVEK

Regarding `CC1(NC(=O)c2cc3c(nc(N)c(=O)n3-c3ccc4c(c3)N(c3ccccc3)CCO4)s2)CCN(C[C@](O)(Cn2cncn2)c2ccc(F)cc2F)CC1` [Compound I-53, (S)-3-amino-N-(1-(2-(2,4-difluorophenyl)-2-hydroxy-3-(1H-1,2,4-triazol-1-yl)propyl)-4-methylpiperidin-4-yl)-2-oxo-1-(4-phenyl-3,4-dihydro-2H-benzo[b][1,4]oxazin-6-yl)-1,2-dihydrothieno[2,3-b]pyrazine-6-carboxamide], the results for the Kd in data set [1] and in data set [2] were 23.6 nM and 1.3 nM, respectively. Moreover, the “HepG2 MIC50” value in the data set with HepG2 cells (Table 5, 48 h incubation) amounted to 4 µM; in the data set on HepG2 cells (Table 6, 48 h incubation), 4 µM. Moreover, the MIC50 with CaCl2 (Table 4) and against CaCl2 (Table 6) was 1.5 µM (≈ 1.13 µg/mL) each time.

In the case of `Nc1nc2sc(-c3noc(C(=O)NN4CCN(CC(O)(Cn5cncn5)c5ccc(F)cc5F)CC4)n3)cc2n(-c2ccc3c(c2)N(c2ccccc2)CCO3)c1=O` (stereo not drawn) [Compound I-54, 3-(3-amino-2-oxo-1-(4-phenyl-3,4-dihydro-2H-benzo[b][1,4]oxazin-6-yl)-1,2-dihydrothieno[2,3-b]pyrazin-6-yl)-N-(4-(2-(2,4-difluorophenyl)-2-hydroxy-3-(1H-1,2,4-triazol-1-yl)propyl)piperazin-1-yl)-1,2,4-oxadiazole-5-carboxamide], the Kd in data set [1] stood at 339 nM; in data set [2] it was 73.5 nM. In addition, the “HepG2 MIC50” value in the data set on HepG2 cells (Table 5, 48 h incubation) was above 10 µM; in the data set on HepG2 cells (Table 6, 48 h incubation) it was above 10 µM. The MIC50 against CaCl2 (Table 4) and in the data set on CaCl2 (Table 6) was 0.6 µM (≈ 0.485 µg/mL) throughout.

As to `COC(=O)c1c(C(=O)NC2CCN(CC(O)(Cn3cncn3)c3ccc(F)cc3F)CC2)sc2nc(N)c(=O)n(-c3ccc4c(c3)N(c3ccccc3)CCO4)c12` (stereo not drawn) [Compound I-55, methyl 3-amino-6-((1-(2-(2,4-difluorophenyl)-2-hydroxy-3-(1H-1,2,4-triazol-1-yl)propyl)piperidin-4-yl)carbamoyl)-2-oxo-1-(4-phenyl-3,4-dihydro-2H-benzo[b][1,4]oxazin-6-yl)-1,2-dihydrothieno[2,3-b]pyrazine-7-carboxylate], the Kd in data set [1] stood at 314 nM; in data set [2], 318 nM. In the data set with HepG2 cells (Table 6, 48 h incubation), the “HepG2 MIC50” value is above 10 µM. Besides, the MIC50 with CaCl2 (Table 4) and in the data set with CaCl2 (Table 6) was 9 µM (≈ 7.18 µg/mL) each time.

Consider `CC(O)c1c(C(=O)NC2CCN(CC(O)(Cn3cncn3)c3ccc(F)cc3F)CC2)sc2nc(N)c(=O)n(-c3ccc4ccn(-c5ccccc5)c4c3)c12` (stereo not drawn) [Compound I-56, 3-amino-N-(1-(2-(2,4-difluorophenyl)-2-hydroxy-3-(1H-1,2,4-triazol-1-yl)propyl)piperidin-4-yl)-7-(1-hydroxyethyl)-2-oxo-1-(1-phenyl-1H-indol-6-yl)-1,2-dihydrothieno[2,3-b]pyrazine-6-carboxamide], for which the values for the Kd in data set [1] and in data set [2] were 229 nM and 64.6 nM, respectively. Also, the “HepG2 MIC50” value with HepG2 cells (Table 6, 48 h incubation) was above 10 µM. The MIC50 with CaCl2 (Table 4) and against CaCl2 (Table 6) was 3 µM (≈ 2.3 µg/mL) in each case.

`Nc1nc2sc(CNC3CCN(C[C@@](O)(Cn4cncn4)c4ccc(F)cc4F)CC3)cc2n(-c2ccc3c(c2)N(c2ccccc2)CCO3)c1=O` [Compound I-62, (R)-3-amino-6-(((1-(2-(2,4-difluorophenyl)-2-hydroxy-3-(1H-1,2,4-triazol-1-yl)propyl)piperidin-4-yl)amino)methyl)-1-(4-phenyl-3,4-dihydro-2H-benzo[b][1,4]oxazin-6-yl)thieno[2,3-b]pyrazin-2(1H)-one]: the values for the Kd in data set [1] and in data set [2] were 423 nM and 234 nM, respectively. In the data set on HepG2 cells (Table 6, 48 h incubation), the “HepG2 MIC50” value turned out to be 10.6 µM. In addition, the MIC50 in the data set on CaCl2 (Table 4) and with CaCl2 (Table 6) was 3 µM (≈ 2.18 µg/mL) in each case.

For the molecule `Nc1nc2sc(C(=O)NC3CCN(CCCC(O)(Cn4cncn4)c4ccc(F)cc4F)CC3)cc2n(-c2ccc3c(c2)N(c2ccccc2)CCO3)c1=O` (stereo not drawn) [Compound I-64, 3-amino-N-(1-(4-(2,4-difluorophenyl)-4-hydroxy-5-(1H-1,2,4-triazol-1-yl)pentyl)piperidin-4-yl)-2-oxo-1-(4-phenyl-3,4-dihydro-2H-benzo[b][1,4]oxazin-6-yl)-1,2-dihydrothieno[2,3-b]pyrazine-6-carboxamide], the Kd in data set [1] is 19.3 nM; in data set [2] it was 0.9 nM. The “HepG2 MIC50” value with HepG2 cells (Table 6, 48 h incubation) was 2 µM. The MIC50 in the data set with CaCl2 (Table 4) is 3.12 µM (≈ 2.4 µg/mL); in the data set on CaCl2 (Table 6) it was 3.13 µM (≈ 2.4 µg/mL).

As to `Nc1nc2sc(CNCC3CCN(CC(O)(Cn4cncn4)c4ccc(F)cc4F)CC3)cc2n(-c2ccc3c(c2)N(c2ccccc2)CCO3)c1=O` (stereo not drawn) [Compound I-67, 3-amino-6-((((1-(2-(2,4-difluorophenyl)-2-hydroxy-3-(1H-1,2,4-triazol-1-yl)propyl)piperidin-4-yl)methyl)amino)methyl)-1-(4-phenyl-3,4-dihydro-2H-benzo[b][1,4]oxazin-6-yl)thieno[2,3-b]pyrazin-2(1H)-one], the figures for the Kd in data set [1] and in data set [2] were 503 nM and 402 nM, respectively. The “HepG2 MIC50” value in the data set with HepG2 cells (Table 6, 48 h incubation) is 4.7 µM. Further, the MIC50 against CaCl2 (Table 4) and in the data set on CaCl2 (Table 6) was 2.25 µM (≈ 1.66 µg/mL) each time.

For the molecule `Nc1nc2sc(C(=O)N[C@@H]3CCN(CC[C@@](O)(Cn4cncn4)c4ccc(F)cc4F)C3)cc2n(-c2ccc3c(c2)N(c2ccccc2)CCO3)c1=O` [Compound I-70, 3-amino-N-((R)-1-((S)-3-(2,4-difluorophenyl)-3-hydroxy-4-(1H-1,2,4-triazol-1-yl)butyl)pyrrolidin-3-yl)-2-oxo-1-(4-phenyl-3,4-dihydro-2H-benzo[b][1,4]oxazin-6-yl)-1,2-dihydrothieno[2,3-b]pyrazine-6-carboxamide], the Kd in data set [1] amounted to 2.9 nM; in data set [2], 0.3 nM. The “HepG2 MIC50” value in the data set on HepG2 cells (Table 6, 48 h incubation) amounted to 1.5 µM. Besides, the MIC50 against CaCl2 (Table 4) and in the data set with CaCl2 (Table 6) was 5.75 µM (≈ 4.25 µg/mL) in each case.

For the molecule `Nc1nc2sc(CNC3CCN(CCC(O)(Cn4cncn4)c4ccc(F)cc4F)CC3)cc2n(-c2ccc3c(c2)N(c2ccccc2)CCO3)c1=O` (stereo not drawn) [Compound I-72, 3-amino-6-(((1-(3-(2,4-difluorophenyl)-3-hydroxy-4-(1H-1,2,4-triazol-1-yl)butyl)piperidin-4-yl)amino)methyl)-1-(4-phenyl-3,4-dihydro-2H-benzo[b][1,4]oxazin-6-yl)thieno[2,3-b]pyrazin-2(1H)-one], the figures for the Kd in data set [1] and in data set [2] were 197 nM and 121 nM, respectively. Further, the “HepG2 MIC50” value in the data set on HepG2 cells (Table 6, 48 h incubation) is 4.6 µM. The MIC50 against CaCl2 (Table 4) and in the data set with CaCl2 (Table 6) was 7.5 µM (≈ 5.55 µg/mL) throughout.

Consider `CC(F)(F)COC(=O)N1Cc2nc(N)nc(-c3c(Cl)cc(Cl)cc3OCCC(O)(Cn3cncn3)c3ccc(F)cc3F)c2C1` (stereo not drawn) [Compound I-115, 2,2-difluoropropyl-2-amino-4-(2,4-dichloro-6-(3-(2,4-difluorophenyl)-3-hydroxy-4-(1H-1,2,4-triazol-1-yl)butoxy)phenyl)-5,7-dihydro-6H-pyrrolo[3,4-d]pyrimidine-6-carboxylate], for which the Kd was 1170 nM in data set [1] and 1200 nM in data set [2]. Besides, the “HepG2 MIC50” value in the data set with HepG2 cells (Table 6, 48 h incubation) is above 20 µM. The MIC50 in the data set with CaCl2 (Table 4) and against CaCl2 (Table 6) was 6.5 µM (≈ 4.36 µg/mL) throughout.

On to `Nc1nc2sc(CNC3CCN(CCCCCC(O)(Cn4cncn4)c4ccc(F)cc4F)CC3)cc2n(-c2ccc3c(c2)N(c2ccccc2)CCO3)c1=O` (stereo not drawn) [Compound I-118, 3-amino-6-(((1-(6-(2,4-difluorophenyl)-6-hydroxy-7-(1H-1,2,4-triazol-1-yl)heptyl)piperidin-4-yl)amino)methyl)-1-(4-phenyl-3,4-dihydro-2H-benzo[b][1,4]oxazin-6-yl)thieno[2,3-b]pyrazin-2(1H)-one], for which the figures for the Kd in data set [1] and in data set [2] were 406 nM and 191 nM, respectively. Besides, the “HepG2 MIC50” value with HepG2 cells (Table 5, 48 h incubation) amounted to 3 µM; in the data set with HepG2 cells (Table 6, 48 h incubation), 3 µM. Further, the MIC50 in the data set on CaCl2 (Table 4) and in the data set on CaCl2 (Table 6) was 2 µM (≈ 1.56 µg/mL) throughout.

With `Nc1nc2sc(CNCC3CCN(C[C@@](O)(Cn4cncn4)c4ccc(F)cc4F)CC3)cc2n(-c2ccc3c(c2)N(c2ccccc2)CCO3)c1=O` [Compound I-122, (R)-3-amino-6-((((1-(2-(2,4-difluorophenyl)-2-hydroxy-3-(1H-1,2,4-triazol-1-yl)propyl)piperidin-4-yl)methyl)amino)methyl)-1-(4-phenyl-3,4-dihydro-2H-benzo[b][1,4]oxazin-6-yl)thieno[2,3-b]pyrazin-2(1H)-one], the Kd in data set [1] was 1900 nM; in data set [2], 1630 nM. Further, the “HepG2 MIC50” value in the data set with HepG2 cells (Table 6, 48 h incubation) worked out at 14.3 µM. Also, the MIC50 against CaCl2 (Table 4) and against CaCl2 (Table 6) was 6.5 µM (≈ 4.81 µg/mL) each time.

With `Nc1nc2sc(CN[C@H]3CCCN(C[C@](O)(Cn4cncn4)c4ccc(F)cc4F)C3)cc2n(-c2ccc3c(c2)N(c2ccccc2)CCO3)c1=O` [Compound I-130, 3-amino-6-((((S)-1-((S)-2-(2,4-difluorophenyl)-2-hydroxy-3-(1H-1,2,4-triazol-1-yl)propyl)piperidin-3-yl)amino)methyl)-1-(4-phenyl-3,4-dihydro-2H-benzo[b][1,4]oxazin-6-yl)thieno[2,3-b]pyrazin-2(1H)-one], the values for the Kd in data set [1] and in data set [2] were 2190 nM and 1580 nM, respectively. For the same molecule, the “HepG2 MIC50” value is above 20 µM in the data set on HepG2 cells (Table 5, 48 h incubation) and above 20 µM in the data set on HepG2 cells (Table 6, 48 h incubation). Also, the MIC50 against CaCl2 (Table 4) and in the data set with CaCl2 (Table 6) was 1.75 µM (≈ 1.27 µg/mL) each time.

The record behind these values is patent US20240424113A1, “CONJUGATES COMPRISING ANTIFUNGALS AND HEAT SHOCK PROTEIN 90 (HSP90) INHIBITORS AND METHODS OF USE THEREOF” (Bright Angel Therapeutics Inc., priority 2021, published 2024).
